Measurements reported in ChEMBL document CHEMBL1201862, “PubChem BioAssay data set” (2004).
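1) Cells in 96-well plates. 2) Compound, 48 h, 5 concentrations. 3) Linear interpolation between surrounding doses. 4) Unreached endpoint = highest concentration. At the GI50, growth is halved.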 The source made the active and inactive calls. Rule as the data show it: active = GI50 up to about 1.1 µM and inactive = higher.

Assays:
Experiment in all cases: NCI anticancer screen, dose series, 48 h
NCI-H522 = test system: NCI-H522
MDA-MB-231 = test system: MDA-MB-231
MOLT-4 = test system: MOLT-4
EKVX = test system: EKVX
786-0 = test system: 786-0
UO-31 = test system: UO-31
K562 = test system: K562
LOX IMVI = test system: LOX IMVI
MDA-N = test system: MDA-N
Hs-578T = test system: Hs-578T
COLO 205 = test system: COLO 205
SW-620 = test system: SW-620
SF-268 = test system: SF-268
SK-OV-3 = test system: SK-OV-3
HOP-92 = test system: HOP-92
Malme-3M = test system: Malme-3M
SF-295 = test system: SF-295
IGROV-1 = test system: IGROV-1
TK-10 = test system: TK-10
SK-MEL-28 = test system: SK-MEL-28
U-251 = test system: U-251
A498 = test system: A498
HCT-116 = test system: HCT-116
RXF 393 = test system: RXF 393
HT-29 = test system: HT-29
NCI-H23 = test system: NCI-H23
BT-549 = test system: BT-549
NCI-H460 = test system: NCI-H460
KM12 = test system: KM12
HCT-15 = test system: HCT-15
PC-3 = test system: PC-3
OVCAR-5 = test system: OVCAR-5
MCF7 = test system: MCF7
NCI-H226 = test system: NCI-H226
NCI/ADR-RES = test system: NCI/ADR-RES
ACHN = test system: ACHN
T47D = test system: T47D
CCRF-CEM = test system: CCRF-CEM
OVCAR-3 = test system: OVCAR-3
MDA-MB-435 = test system: MDA-MB-435
SNB-19 = test system: SNB-19
OVCAR-8 = test system: OVCAR-8
SR = test system: SR
HL-60 = test system: HL-60
M14 = test system: M14
SK-MEL-5 = test system: SK-MEL-5
CAKI-1 = test system: CAKI-1
OVCAR-4 = test system: OVCAR-4
A549 = test system: A549
HOP-62 = test system: HOP-62
UACC-257 = test system: UACC-257
SNB-75 = test system: SNB-75
HCC 2998 = test system: HCC 2998
SN12C = test system: SN12C
DU-145 = test system: DU-145
UACC-62 = test system: UACC-62

For `CCc1nnc(-n2c(C)nc3cc(Cl)ccc3c2=O)s1`, the GI50 (NCI-H522) was 20.5 µM (inactive), the GI50 (MDA-MB-231) was 83 µM (inactive) and the GI50 (MOLT-4) was 26.3 µM (inactive). For the same compound, the GI50 (EKVX) was 49.2 µM (inactive), the GI50 (786-0) was 26.5 µM (inactive) and the GI50 (UO-31) was 31.6 µM (inactive). The GI50 (K562) was 29 µM (inactive), the GI50 (LOX IMVI) was 39.1 µM (inactive) and the GI50 (MDA-N) was 13.3 µM (inactive). For the same compound, the GI50 (Hs-578T) was 28.2 µM (inactive), the GI50 (COLO 205) was 24.4 µM (inactive) and the GI50 (SW-620) was 34.8 µM (inactive). For the same compound, the GI50 (SF-268) was 37.8 µM (inactive), the GI50 (SK-OV-3) was 38.4 µM (inactive) and the GI50 (HOP-92) was 27 µM (inactive). The GI50 (Malme-3M) was 16 µM (inactive), the GI50 (SF-295) was 21.4 µM (inactive) and the GI50 (IGROV-1) was 40.7 µM (inactive). For the same compound, the GI50 (TK-10) was 40.9 µM (inactive), the GI50 (SK-MEL-28) was 46.6 µM (inactive) and the GI50 (U-251) was 42.7 µM (inactive). For the same compound, the GI50 (A498) was 39.9 µM (inactive), the GI50 (HCT-116) was 26.4 µM (inactive) and the GI50 (RXF 393) was 47.3 µM (inactive). For the same compound, the GI50 (HT-29) was 35.2 µM (inactive), the GI50 (NCI-H23) was 31.6 µM (inactive) and the GI50 (BT-549) was 44.6 µM (inactive). For the same compound, the GI50 (NCI-H460) was 40.5 µM (inactive), the GI50 (KM12) was 38.5 µM (inactive) and the GI50 (HCT-15) was 44.1 µM. For the same compound, the GI50 (PC-3) was 52.8 µM (inactive), the GI50 (OVCAR-5) was > 100 µM (inactive) and the GI50 (MCF7) was 31.9 µM (inactive). For the same compound, the GI50 (NCI-H226) was 43.1 µM (inactive), the GI50 (NCI/ADR-RES) was 39.6 µM (inactive) and the GI50 (ACHN) was 33.8 µM (inactive). The GI50 (T47D) was 27.9 µM (inactive), the GI50 (CCRF-CEM) was 19.6 µM (inactive) and the GI50 (OVCAR-3) was 18.7 µM (inactive). The GI50 (MDA-MB-435) was 35 µM (inactive), the GI50 (SNB-19) was 36.1 µM (inactive) and the GI50 (OVCAR-8) was 51.4 µM (inactive). For the same compound, the GI50 (SR) was 34.5 µM (inactive), the GI50 (HL-60) was 41 µM (inactive) and the GI50 (M14) was 38.7 µM (inactive). The GI50 (SK-MEL-5) was 21.3 µM (inactive), the GI50 (CAKI-1) was 80.9 µM (inactive) and the GI50 (OVCAR-4) was 28.8 µM (inactive). The GI50 (A549) was 31 µM (inactive), the GI50 (HOP-62) was 45.4 µM (inactive) and the GI50 (UACC-257) was 39.4 µM (inactive). For the same compound, the GI50 (SNB-75) was 34.9 µM (inactive), the GI50 (HCC 2998) was 49.8 µM (inactive) and the GI50 (SN12C) was 34.2 µM (inactive). The GI50 (DU-145) was 41.6 µM (inactive) and the GI50 (UACC-62) was 22.1 µM (inactive).
